Assay [1] deals with HIV replication in T-lymphocytes, virus coding for mutant enzyme K103N/Y181C. The assay can be described thus: ELISA (p24) assay for activity in cell culture, mutant virus. The following applies: Human immunodeficiency virus 1, T-lymphocyte, read-out: EC50 K103N/Y181C. Format: cell-based. The protocol: (§1) ELISA Assay for Assessment of Activity in Cell Culture
(§2) Compounds of the invention were tested for their ability to inhibit HIV replication in cell culture. Viruses coding for Wild type and mutant enzymes were used. T-lymphocytes were infected with the virus, infected cells were incubated in the presence of varying amounts of compounds of the invention, and an ELISA assay for the viral protein p24 was used to quantify viral replication. Table 9 lists the results as EC50 (nM).

Assay [2] deals with T1, HIV-1 RT double mutant K103N/Y181C (Human immunodeficiency virus type 1 group M subtype B, UniProt P04585, K690N/Y768C).
T1 construct: Heterodimeric RT was eluted using a descending gradient; made in house; host or cells: E. coli (inferred; the text describes only wild type and Y181C preparations)
The assay can be described thus: Reverse Transcriptase (RT) assay, double mutant enzyme. Format: biochemical. The method, boiled down:
(§3)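 Cell-free assay with recombinant heterodimeric RT (1.5 nM in diluted enzyme, Tris pH 7.8, 0.05% Chaps), poly r(C)/oligo d(G) template-primer and ^3H-dGTP, 30 min at room temperature. TCA-precipitated DNA counted by scintillation; EDTA background subtracted, percent inhibition calculated.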

Assay [3] deals with HIV replication in T-lymphocytes, virus coding for wild type enzyme. The assay can be described thus: ELISA (p24) assay for activity in cell culture, wild type virus. As to conditions: Human immunodeficiency virus 1, T-lymphocyte, read-out: EC50 WT RT. Format: cell-based. The protocol: as §1, §2
The target of a further assay is T2, HIV-1 RT wild type (WT) (Human immunodeficiency virus type 1 group M subtype B, UniProt P04585).
T2 construct: Heterodimeric RT was eluted using a descending gradient; made in house; host or cells: E. coli
The assay can be described thus: Reverse Transcriptase (RT) assay, wild type enzyme. Format: biochemical. Summed up:
as §3

EC50 and IC50 data for two compounds are collected here from patent US6716836B2, “Non-nucleoside reverse transcriptase inhibitors” (Boehringer Ingelheim (Canada) Ltd., priority 2001, dated 2004).

As to `CCN1c2ncc(CCOc3cccc4c3C=CS(=O)(=O)N4C)cc2C(=O)Nc2c(C)ccnc21` [Compound 804], the EC50 in assay [1] and in assay [3] was less than 100 nM each time. Besides, the IC50 (in assay [2]; at HIV-1 RT wild type (WT)) was less than 100 nM each time.
`CCN1c2ncc(CCOc3cccc4c3C=CS(=O)(=O)N4CCCC(=O)O)cc2C(=O)N(C)c2cccnc21` [Compound 809]: the EC50 in assay [1] and in assay [3] was less than 100 nM in each case. The IC50 in assay [2] was 100 to 1000 nM; at HIV-1 RT wild type (WT), less than 100 nM.
